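Results reflect a 48-hour exposure of cells in 96-well plates to compound at five concentrations. GI50 marks 50% less growth.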 Active and inactive are the calls of the source. No stated cut-off is given here; in the data, active = GI50 up to about 1.1 µM and inactive = higher.
Assays:
Test in all cases: inhibition of tumour cell growth, NCI panel, 48 h
[1] = system: 786-0
[2] = system: A549
[3] = system: CAKI-1
[4] = system: CCRF-CEM
[5] = system: COLO 205
[6] = system: DU-145
[7] = system: EKVX
[8] = system: HCC 2998
[9] = system: HCT-15
[10] = system: HL-60
[11] = system: HOP-62
[12] = system: HOP-92
[13] = system: HT-29
[14] = system: IGROV-1
[15] = system: K562
[16] = system: KM12
[17] = system: LOX IMVI
[18] = system: M14
[19] = system: MCF7
[20] = system: MDA-MB-231
[21] = system: MDA-MB-435
[22] = system: MDA-N
[23] = system: MOLT-4
[24] = system: Malme-3M
[25] = system: NCI-H23
[26] = system: OVCAR-4
[27] = system: OVCAR-8
[28] = system: PC-3
[29] = system: RPMI-8226
[30] = system: RXF 393
[31] = system: SF-268
[32] = system: SF-295
[33] = system: SK-MEL-28
[34] = system: SK-MEL-5
[35] = system: SK-OV-3
[36] = system: SN12C
[37] = system: SNB-75
[38] = system: SR
[39] = system: SW-620
[40] = system: T47D
[41] = system: TK-10
[42] = system: UACC-257
[43] = system: UACC-62
[44] = system: A498
[45] = system: ACHN
[46] = system: HCT-116
[47] = system: Hs-578T
[48] = system: NCI-H226
[49] = system: NCI-H460
[50] = system: NCI-H522
[51] = system: NCI/ADR-RES
[52] = system: OVCAR-3
[53] = system: SF-539
[54] = system: SK-MEL-2
[55] = system: SNB-19
[56] = system: U-251
[57] = system: UO-31

Q: With `Clc1cccc(-c2sc(-c3ccsc3)cc2Cc2ccsc2)c1` as the compound, how does the GI50 [1] read?
A: The GI50 was > 10 µM (inactive).

Q: And the GI50 [2]?
A: The GI50 was > 10 µM (inactive).

Q: What about the GI50 [3] of the same compound?
A: Its GI50 is > 10 µM (inactive).

Q: And the GI50 [4]?
A: The GI50 was > 10 µM (inactive).

Q: And the GI50 [5]?
A: Its GI50 is > 10 µM (inactive).

Q: What about the GI50 [6] of the same compound?
A: Its GI50 is > 10 µM (inactive).

Q: What about the GI50 [7] of the same compound?
A: Its GI50 is > 10 µM (inactive).

Q: What about the GI50 [8] of the same compound?
A: The GI50 was > 10 µM (inactive).

Q: And the GI50 [9]?
A: Its GI50 is > 10000 nM.

Q: And the GI50 [10]?
A: Its GI50 is > 10 µM (inactive).

Q: And the GI50 [11]?
A: The GI50 was > 10 µM (inactive).

Q: And the GI50 [12]?
A: The GI50 was > 10 µM (inactive).

Q: And the GI50 [13]?
A: The GI50 was > 10 µM (inactive).

Q: And the GI50 [14]?
A: Its GI50 is > 10 µM (inactive).

Q: What about the GI50 [15] of the same compound?
A: The GI50 was > 10 µM (inactive).

Q: What about the GI50 [16] of the same compound?
A: The GI50 was > 10 µM (inactive).

Q: What about the GI50 [17] of the same compound?
A: Its GI50 is > 10 µM (inactive).

Q: What about the GI50 [18] of the same compound?
A: The GI50 was > 10 µM (inactive).

Q: What about the GI50 [19] of the same compound?
A: The GI50 was > 10 µM (inactive).

Q: And the GI50 [20]?
A: Its GI50 is > 10 µM (inactive).

Q: And the GI50 [21]?
A: Its GI50 is > 10 µM (inactive).

Q: What about the GI50 [22] of the same compound?
A: The GI50 was > 10 µM (inactive).

Q: And the GI50 [23]?
A: Its GI50 is > 10 µM (inactive).

Q: And the GI50 [24]?
A: The GI50 was > 10 µM (inactive).

Q: And the GI50 [25]?
A: The GI50 was > 10 µM (inactive).

Q: And the GI50 [26]?
A: The GI50 was > 10 µM (inactive).

Q: What about the GI50 [27] of the same compound?
A: The GI50 was > 10 µM (inactive).

Q: What about the GI50 [28] of the same compound?
A: Its GI50 is > 10 µM (inactive).

Q: What about the GI50 [29] of the same compound?
A: Its GI50 is > 10 µM (inactive).

Q: And the GI50 [30]?
A: The GI50 was > 10 µM (inactive).

Q: And the GI50 [31]?
A: Its GI50 is > 10 µM (inactive).

Q: What about the GI50 [32] of the same compound?
A: Its GI50 is > 10 µM (inactive).

Q: And the GI50 [33]?
A: Its GI50 is > 10 µM (inactive).

Q: What about the GI50 [34] of the same compound?
A: The GI50 was > 10 µM (inactive).

Q: And the GI50 [35]?
A: The GI50 was > 10 µM (inactive).

Q: What about the GI50 [36] of the same compound?
A: Its GI50 is > 10 µM (inactive).

Q: What about the GI50 [37] of the same compound?
A: The GI50 was > 10 µM (inactive).

Q: What about the GI50 [38] of the same compound?
A: Its GI50 is > 10 µM (inactive).

Q: What about the GI50 [39] of the same compound?
A: Its GI50 is > 10 µM (inactive).

Q: What about the GI50 [40] of the same compound?
A: Its GI50 is 8 µM (inactive).

Q: And the GI50 [41]?
A: The GI50 was > 10 µM (inactive).

Q: What about the GI50 [42] of the same compound?
A: The GI50 was > 10 µM (inactive).

Q: And the GI50 [43]?
A: Its GI50 is > 10 µM (inactive).

Q: What does the source list for `CC(C)[C@]12O[C@H]1[C@@H]1O[C@]13[C@]1(O[C@H]1C[C@H]1C4=C(CC[C@@]13C)C(=O)OC4)[C@@H]2O` [TRIPTOLIDE]?
A: GI50 [1]: 0.0169 µM (active); GI50 [44]: 18 nM (active); GI50 [45]: 6.79 nM (active); GI50 [4]: 0.011 µM (active); GI50 [5]: 0.00776 µM (active); GI50 [6]: 0.0244 µM (active); GI50 [7]: 0.021 µM (active); GI50 [8]: 0.0183 µM (active); GI50 [46]: 2.58 nM (active); GI50 [9]: 14 nM; GI50 [10]: 0.00667 µM (active); GI50 [11]: 0.00701 µM (active); GI50 [12]: 0.023 µM (active); GI50 [13]: 0.0083 µM (active); GI50 [47]: 15 nM (active); GI50 [14]: 0.00713 µM (active); GI50 [15]: 0.017 µM (active); GI50 [16]: 0.0274 µM (active); GI50 [17]: 0.00514 µM (active); GI50 [18]: < 0.0136 µM (active); GI50 [19]: 0.00427 µM (active); GI50 [20]: 0.0145 µM (active); GI50 [21]: 0.00693 µM (active); GI50 [22]: 0.00759 µM (active); GI50 [23]: 0.00764 µM (active); GI50 [24]: 0.0112 µM (active); GI50 [48]: 21.6 nM (active); GI50 [25]: 0.00322 µM (active); GI50 [49]: 5.27 nM (active); GI50 [50]: 8.81 nM (active); GI50 [51]: 26.1 nM (active); GI50 [52]: 5.86 nM (active); GI50 [26]: 0.00792 µM (active); GI50 [27]: 0.0203 µM (active); GI50 [28]: 0.0181 µM (active); GI50 [31]: 0.0249 µM (active); GI50 [32]: 0.0279 µM (active); GI50 [53]: 7.45 nM (active); GI50 [33]: 0.00637 µM (active); GI50 [54]: 6.43 nM (active); GI50 [34]: 0.00697 µM (active); GI50 [35]: 0.0474 µM (active); GI50 [36]: 0.00861 µM (active); GI50 [55]: 104 nM (active); GI50 [37]: 0.0101 µM (active); GI50 [38]: 0.0173 µM (active); GI50 [39]: 0.0141 µM (active); GI50 [41]: < 0.014 µM (active); GI50 [56]: 61 nM (active); GI50 [43]: 0.00421 µM (active); GI50 [57]: 12.4 nM (active)

Source: ChEMBL document CHEMBL1201862, “PubChem BioAssay data set” (2004)
